Measurements: patent US11214594B2, “Antimicrobial peptide having synergistic antibacterial effect with antibiotics on multidrug resistant bacteria, and use thereof” (priority 2016, dated 2022)
Converted amounts (≈) assume the structure as drawn. Read-outs that look alike come from different tables or passages of the source. Where a SMILES comes first, the peptide text is derived from it. [ ]: non-standard residue; d: D form.

Columns and labels:
[1] = system: multi-drug resistant bacteria; test: MIC, summary statements for multi-drug resistant bacteria; format: cell-based
Method in brief: (§1)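 Broth microdilution in MH medium: strains diluted to 2×10^6 CFU were mixed with equal volumes of twofold serial peptide dilutions in MH medium. MIC was taken as the lowest peptide concentration preventing bacterial growth.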

[2] = system: MDRAB 12035; test: MIC of antibiotic during combined treatment with antimicrobial peptide; format: cell-based, Acinetobacter baumannii
Method in brief: (§2)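 Antibiotic MIC came from antibiotic dilutions added to bacteria (2×10^6 CFU/ml, MH medium) already combined with peptide serially diluted 2:1 from its own MIC. Swapping the roles of the two agents gave the peptide MIC.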

[3] = system: B. subtilis; test: microbe, parasite or virus in culture; format: cell-based, Bacillus subtilis
Method in brief: as §1

[4] = system: MDRPA 2003; format: cell-based, Pseudomonas aeruginosa
Method in brief: as §1

[5] = system: MDRPA 2002; format: cell-based, Pseudomonas aeruginosa
Method in brief: as §1

[6] = system: A. baumannii; test: MIC of antibiotic during combined treatment with antimicrobial peptide; format: cell-based, Acinetobacter baumannii; conditions: for Antibiotic MIC, Erythromycin / Antibiotic MIC, Linezolid / Antibiotic MIC, Vancomycin: A. baumannii
Method in brief: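 Antibiotic diluted in MH medium, dispensed per well with peptide; setup repeated with roles reversed; MIC read per combination.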

[7] = system: MDREC 1229; format: cell-based, Escherichia coli
Method in brief: as §2

[8] = system: E. coli; format: cell-based, Escherichia coli; conditions: E. coli
Method in brief: as §2

[9] = system: MDRAB 12035; test: microbe, parasite or virus in culture; format: cell-based, Acinetobacter baumannii
Method in brief: as §1

[10] = system: A. baumannii; test: microbe, parasite or virus in culture; format: cell-based, Acinetobacter baumannii
Method in brief: as §1

[11] = peptide treatment concentration 1 μg/ml
[12] = peptide treatment concentration 2 μg/ml
[13] = peptide treatment concentration 4 μg/ml
[14] = peptide treatment concentration 6 μg/ml
[15] = peptide treatment concentration 8 μg/ml
[16] = peptide treatment concentration 16 μg/ml
[17] = peptide treatment concentration 32 μg/ml
[18] = peptide treatment concentration 64 μg/ml
[19] = combined with peptide at 1 μg/ml
[20] = combined with peptide at 2 μg/ml
[21] = combined with peptide at 4 μg/ml
[22] = combined with peptide at 6 μg/ml
[23] = combined with peptide at 8 μg/ml
[24] = combined with peptide at 16 μg/ml
[25] = combined with peptide at 32 μg/ml
[26] = combined with peptide at 64 μg/ml

CC[C@H](C)[C@H](NC(=O)[C@H](CCCCN)NC(=O)[C@H](Cc1c[nH]c2ccccc12)NC(=O)[C@@H](N)CCCNC(=N)N)C(=O)N[C@@H](Cc1ccccc1)C(=O)N[C@@H](CCCCN)C(=O)N[C@@H](CCCCN)C(=O)N[C@H](C(=O)N[C@H](CC(C)C)C(=O)N[C@@H](CCCCN)C(=O)N[C@@H](CC(C)C)C(=O)N[C@@H](CC(C)C)C(=O)N[C@@H](Cc1c[nH]cn1)C(=O)N[C@@H](CCC(=O)O)C(=O)N[C@@H](Cc1ccccc1)C(=O)N[C@@H](CCCCN)C(=O)N[C@@H](CCCCN)C(=O)N[C@@H](Cc1ccccc1)C(N)=O)[C@@H](C)CC [PapMA-23, RWK IFK KIl KLL HEF KKF-NH2] (H-RWKIFKKI[dL]KLLHEFKKF-NH2; N-terminus assumed)
Antibacterial activity relative to PapMA-1 [1]: twice to four times higher
Erythromycin MIC during combined treatment with peptide [2, 11]: 32 µg/mL
Linezolid MIC during combined treatment with peptide [2, 11]: >128 µg/mL
Vancomycin MIC during combined treatment with peptide [2, 11]: >128 µg/mL
Erythromycin MIC during combined treatment with peptide [2, 12]: 32 µg/mL
Linezolid MIC during combined treatment with peptide [2, 12]: >128 µg/mL
Vancomycin MIC during combined treatment with peptide [2, 12]: >128 µg/mL
Erythromycin MIC during combined treatment with peptide [2, 13]: 16 µg/mL
Linezolid MIC during combined treatment with peptide [2, 13]: 64 µg/mL
Vancomycin MIC during combined treatment with peptide [2, 13]: 128 µg/mL
Erythromycin MIC during combined treatment with peptide [2, 14]: 4 µg/mL
Linezolid MIC during combined treatment with peptide [2, 14]: 32 µg/mL
Vancomycin MIC during combined treatment with peptide [2, 14]: 32 µg/mL
Erythromycin MIC during combined treatment with peptide [2, 15]: 1 µg/mL
Linezolid MIC during combined treatment with peptide [2, 15]: 16 µg/mL
Vancomycin MIC during combined treatment with peptide [2, 15]: 16 µg/mL
Erythromycin MIC during combined treatment with peptide [2, 16]: 0.25 µg/mL
Linezolid MIC during combined treatment with peptide [2, 16]: 4 µg/mL
Vancomycin MIC during combined treatment with peptide [2, 16]: 8 µg/mL
Erythromycin MIC during combined treatment with peptide [2, 17]: 0 µg/mL
Linezolid MIC during combined treatment with peptide [2, 17]: 0 µg/mL
Vancomycin MIC during combined treatment with peptide [2, 17]: 0 µg/mL
Erythromycin MIC during combined treatment with peptide [2, 18]: 0 µg/mL
Linezolid MIC during combined treatment with peptide [2, 18]: 0 µg/mL
Vancomycin MIC during combined treatment with peptide [2, 18]: 0 µg/mL
Minimal inhibitory concentration MIC [3]: >128 µg/mL
Minimal inhibitory concentration MIC [4]: 64 µg/mL (≈ 26.6 µM)
Minimal inhibitory concentration MIC [5]: 64 µg/mL (≈ 26.6 µM)
Synergistic effect of antibacterial activity with existing antibiotics compared with PapMA-1 ([6]; A. baumannii and MDRAB 12035): level similar to that of PapMA-1 peptide
Antibiotic MIC, Erythromycin [6, 19]: 32 µg/mL
Antibiotic MIC, Linezolid [6, 19]: >128 µg/mL
Antibiotic MIC, Vancomycin [6, 19]: >128 µg/mL
Antibiotic MIC, Erythromycin [6, 20]: 32 µg/mL
Antibiotic MIC, Linezolid [6, 20]: >128 µg/mL
Antibiotic MIC, Vancomycin [6, 20]: >128 µg/mL
Antibiotic MIC, Erythromycin [6, 21]: 8 µg/mL
Antibiotic MIC, Linezolid [6, 21]: 64 µg/mL
Antibiotic MIC, Vancomycin [6, 21]: 64 µg/mL
Antibiotic MIC, Erythromycin [6, 22]: 4 µg/mL
Antibiotic MIC, Linezolid [6, 22]: 16 µg/mL
Antibiotic MIC, Vancomycin [6, 22]: 32 µg/mL
Antibiotic MIC, Erythromycin [6, 23]: 0.5 µg/mL
Antibiotic MIC, Linezolid [6, 23]: 4 µg/mL
Antibiotic MIC, Vancomycin [6, 23]: 8 µg/mL
Antibiotic MIC, Erythromycin [6, 24]: 0.25 µg/mL
Antibiotic MIC, Linezolid [6, 24]: 2 µg/mL
Antibiotic MIC, Vancomycin [6, 24]: 4 µg/mL
Antibiotic MIC, Erythromycin [6, 25]: 0 µg/mL
Antibiotic MIC, Linezolid [6, 25]: 0 µg/mL
Antibiotic MIC, Vancomycin [6, 25]: 0 µg/mL
Antibiotic MIC, Erythromycin [6, 26]: 0 µg/mL
Antibiotic MIC, Linezolid [6, 26]: 0 µg/mL
Antibiotic MIC, Vancomycin [6, 26]: 0 µg/mL
Peptide MIC during treatment with antibiotic ([7]; erythromycin 32 μg/ml (Conc./MIC 1/8)): 4 µg/mL
Peptide MIC during treatment with antibiotic ([7]; erythromycin 64 μg/ml (Conc./MIC 1/4)): 2 µg/mL
Peptide MIC during treatment with antibiotic ([7]; erythromycin […] (Conc./MIC 1)): 0 µg/mL
Peptide MIC during treatment with antibiotic ([7]; erythromycin […] (Conc./MIC 1/2)): 1 µg/mL
Peptide MIC during treatment with antibiotic ([7]; linezolid 64 μg/ml (Conc./MIC 1/8)): 4 µg/mL
Peptide MIC during treatment with antibiotic ([7]; linezolid 512 μg/ml (Conc./MIC 1)): 0 µg/mL
Peptide MIC during treatment with antibiotic ([7]; linezolid […] (Conc./MIC 1/2)): 1 µg/mL
Peptide MIC during treatment with antibiotic ([7]; linezolid […] (Conc./MIC 1/4)): 2 µg/mL
Peptide MIC during treatment with antibiotic ([7]; vancomycin 512 μg/ml (Conc./MIC 1/2)): 2 µg/mL
Peptide MIC during treatment with antibiotic ([7]; vancomycin 1024 μg/ml (Conc./MIC 1)): 1 µg/mL
Peptide MIC during treatment with antibiotic ([7]; vancomycin […] (Conc./MIC 1/4)): 4 µg/mL
Peptide MIC during treatment with antibiotic ([7]; vancomycin […] (Conc./MIC 1/8)): 8 µg/mL
Peptide MIC ([8]; with Erythromycin […] (Conc./MIC 1)): 0 µg/mL
Peptide MIC ([8]; with Linezolid […] (Conc./MIC 1)): 0 µg/mL
Peptide MIC ([8]; with Vancomycin 1024 μg/ml (Conc./MIC 1)): 0 µg/mL
Minimal inhibitory concentration MIC [9]: 32 µg/mL (≈ 13.3 µM)
Peptide MIC, peptide alone [9]: 32 µg/mL
Minimal inhibitory concentration MIC [10]: 32 µg/mL (≈ 13.3 µM)
Peptide MIC, peptide alone [10]: 32 µg/mL
Antibacterial activity relative to PapMA-1 ([10]; A. baumannii and S. typhimurium): at least twice as high
